The results in this text go back to ChEMBL document CHEMBL2311294, “Design, synthesis and bioevalution of novel benzamides derivatives as HDAC inhibitors” (Bioorg Med Chem Lett, 2013).

In one data set the target is Histone deacetylase 1 (Homo sapiens, UniProt Q13547). Nature of the data set: Inhibition of HDAC1 (unknown origin).
Data set [1] relates to A549. Nature of the data set: cells. As to conditions: Homo sapiens, A549, 72 h.
Description: Cytotoxicity against human A549 cells after 72 hrs by MTT assay
The subject of data set [2] is MCF7. Kind of data set: cells. To be noted: Homo sapiens, MCF7, 72 h.
Description: Cytotoxicity against human MCF7 cells after 72 hrs by MTT assay
The test system of the next data set is HCT-116. Nature of the data set: cells. To be noted: Homo sapiens, HCT-116, 72 h.
Data set [3] is described as follows: Tmax in Sprague-Dawley rat at 25 mg/kg, po. The class given is ADME, organism-based. Also noted: dose 25 mg/kg, route oral. As to conditions: in vivo.
Data set [4] in a line: Oral bioavailability in Sprague-Dawley rat at 25 mg/kg. The format is ADME, organism-based. As to conditions: in vivo.
A short description of data set [5]: AUC infinity in Sprague-Dawley rat at 25 mg/kg, po. The class given is ADME, organism-based. Also noted: time infinity, dose 25 mg/kg, route oral. To be noted: plasma.
Data set [6] can be described thus: Terminal half life in Sprague-Dawley rat at 25 mg/kg, po. The format is ADME, organism-based. Also noted: dose 25 mg/kg, route oral. As to conditions: in vivo, read-out: beta t1/2 (converted).
A short description of data set [7]: Terminal half life in Sprague-Dawley rat at 5 mg/kg, iv. As to conditions: in vivo, read-out: beta t1/2 (converted). Also noted: dose 5 mg/kg, route intravenous. The class given is ADME, organism-based.
The subject of data set [8] is A549. Nature of the data set: Ratio of MGCD0103 IC50 to compound IC50 for human A549 cells. The class given is functional.
Data set [9] concerns MCF7. Nature of the data set: Ratio of MGCD0103 IC50 to compound IC50 for human MCF7 cells. The format is functional.
Data set [10] in a line: AUClast in Sprague-Dawley rat at 25 mg/kg, po. To be noted: plasma.

Sequence of Histone deacetylase 1 (Q13547 whole entry): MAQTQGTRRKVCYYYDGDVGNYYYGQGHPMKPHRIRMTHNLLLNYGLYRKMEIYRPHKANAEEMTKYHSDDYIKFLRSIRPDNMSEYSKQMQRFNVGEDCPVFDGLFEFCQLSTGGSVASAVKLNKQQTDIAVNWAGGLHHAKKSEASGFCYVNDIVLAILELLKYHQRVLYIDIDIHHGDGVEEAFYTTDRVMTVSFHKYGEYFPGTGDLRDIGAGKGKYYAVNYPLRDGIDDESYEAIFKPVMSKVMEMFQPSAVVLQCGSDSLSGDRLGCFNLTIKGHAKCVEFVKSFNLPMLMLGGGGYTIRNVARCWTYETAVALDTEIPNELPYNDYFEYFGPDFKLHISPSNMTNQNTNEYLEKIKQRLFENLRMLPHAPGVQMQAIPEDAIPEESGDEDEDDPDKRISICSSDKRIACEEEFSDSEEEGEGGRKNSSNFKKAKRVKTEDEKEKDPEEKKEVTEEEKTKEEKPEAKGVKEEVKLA

In the case of `Nc1ccccc1NC(=O)c1ccc(CNc2nccc(-c3cnc4cnccn34)n2)cc1`, the IC50 (commonly the midpoint of a concentration-inhibition curve) against Histone deacetylase 1 worked out at 110 nM; in the data set with A549 [1] it was 509 nM; in the data set with MCF7 [2] it was 2180 nM; in the data set with HCT-116 it was 214 nM.
Turning to `Cc1nc2ccccn2c1-c1ccnc(NCc2ccc(C(=O)Nc3ccccc3N)cc2)n1`, the IC50 is 108 nM against Histone deacetylase 1, 439 nM in the data set on A549 [1], 2090 nM with MCF7 [2] and 203 nM with HCT-116.
On the same counts, the results for `Cc1nc2ncccn2c1-c1ccnc(NCc2ccc(C(=O)Nc3ccccc3N)cc2)n1` are 127 nM, 857 nM, 4110 nM and 189 nM.
Regarding `Cc1nc2cnccn2c1-c1ccnc(NCc2ccc(C(=O)Nc3ccccc3N)cc2)n1`, the IC50 against Histone deacetylase 1 turned out to be 97 nM; with A549 [1], 694 nM; in the data set on MCF7 [2], 3740 nM; in the data set with HCT-116, 264 nM.
On the same counts, the results for `Cc1nc2ccccn2c1-c1ccnc(NCCc2ccc(C(=O)Nc3ccccc3N)cc2)n1` are 131 nM, 851 nM, 4120 nM and 304 nM.
Turning to `Nc1ccccc1NC(=O)c1ccc(CCNc2nccc(-c3cnc4ncccn34)n2)cc1`, the IC50 on Histone deacetylase 1 turned out to be 154 nM; in the data set on A549 [1], 724 nM; with MCF7 [2], 1720 nM; in the data set on HCT-116, 256 nM.
For the compound `Cc1nc2ccccn2c1-c1ccnc(NCc2ccc(C(=O)Nc3cc(F)ccc3N)cc2)n1`, the IC50 against Histone deacetylase 1 was determined as 97 nM; in the data set with A549 [1] it was 176 nM; with MCF7 [2] it was 1000 nM; in the data set with HCT-116, 270 nM.
In the same order, the values of `Cc1nc2ccccn2c1-c1ccnc(NCc2ccc(C(=O)Nc3ccc(F)cc3N)cc2)n1` are 135 nM, 649 nM, 2400 nM and 244 nM.
Regarding `Cc1nc2ccc(Br)cn2c1-c1ccnc(NCc2ccc(C(=O)Nc3ccccc3N)cc2)n1`, the IC50 against Histone deacetylase 1 amounted to 125 nM; in the data set on A549 [1], 501 nM; in the data set on MCF7 [2], 2360 nM; with HCT-116, 301 nM.
`Nc1ccccc1NC(=O)c1ccc(CNc2nccc(-c3cnc4ccccn34)n2)cc1`: in [3], the Tmax (usually the time at which the peak concentration occurs) is 4.98 min. Further, in data set [4], the bioavailability (in general, the share of a dose that reaches the circulation, judged against a reference dose that is usually intravenous) is 81%. Further, in data set [5], the AUC(0-inf) (commonly total exposure, with the tail of the curve extrapolated) was 72300 ng·h/mL. Also, the half-life in [6] is 4.58 h; in data set [7], 1.73 h. Moreover, the values for the Ratio IC50 in the data set on A549 [8] and in the data set on MCF7 [9] were 11.6 and 7, respectively. In addition, the IC50 at Histone deacetylase 1 stood at 53 nM; in the data set on A549 [1] it was 110 nM; in the data set with MCF7 [2], 661 nM; in the data set with HCT-116 it was 82 nM. In data set [10], the AUC(0-t) – broadly, the area under the concentration-time curve up to a stated or last time point – came out at 71900 ng·h/mL.
In the case of `Nc1ccccc1NC(=O)c1ccc(CNc2nccc(-c3cnc4ncccn34)n2)cc1`, the IC50 at Histone deacetylase 1 turned out to be 35 nM; in the data set with A549 [1], 427 nM; in the data set on MCF7 [2], 856 nM; with HCT-116 it was 183 nM.
